Laboratory results as given in patent US9611221B2, “Histone demethylase inhibitors” (CELGENE QUANTICEL RESEARCH, INC., priority 2012, dated 2017).

Key:
Assay type in all cases: biochemical
Jarid1A = Jarid1A (Homo sapiens (Human), UniProt P29375); assay: Jarid1A in vitro enzyme inhibition assay (TR-FRET); settings: 1 nM Jarid1A, 300 nM H3K4me3-biotin peptide, 2 μM alpha-ketoglutaric acid
Excerpt: (§1) This assay determines the ability of a test compound to inhibit Jarid1A, Jarid1B, and JMJD2C demethylase activity. Baculovirus expressed Jarid1A (GenBank Accession #NM_001042603, AA1-1090) was purchased from BPS Bioscience (Cat#50110). Baculovirus expressed Jarid1B (GenBank Accession #NM_006618, AA 2-751) was purchased from BPS Bioscience (Cat #50121) or custom made by MolecularThroughput. Baculovirus expressed JMJD2C (GenBank Accession #BC143571, AA 2-372) was purchased from BPS Bioscience (Cat#50105).
(§2) The enzymatic assay of Jarid1A activity is based upon Time Resolved-Fluorescence Resonance Energy Transfer (TR-FRET) detection. The ability of test compounds to inhibit the activity of Jarid1A was determined in 384-well plate format under the following reaction conditions: 1 nM Jarid1A, 300 nM H3K4me3-biotin labeled peptide (Anaspec cat #64357), 2 μM alpha-ketoglutaric acid in assay buffer of 50 mM HEPES, pH7.3, 0.005% Brij35, 0.5 mM TCEP, 0.2 mg/ml BSA, 50 μM sodium L-ascorbate, and 2 μM ammonium iron(II) sulfate. Reaction product was determined quantitatively by TR-FRET after the addition of detection reagent Phycolink Streptavidin-allophycocyanin (Prozyme) and Europium-anti-mono- or di-methylated histone H3 lysine 4 (H3K4me1-2) antibody (PerkinElmer) in the presence of 5 mM EDTA in LANCE detection buffer (PerkinElmer) at a final concentration of 25 nM and 1 nM, respectively.
(§3) The reaction mixture was incubated at room temperature for 30 minutes, and terminated by the addition of 6 μl of 5 mM EDTA in LANCE detection buffer containing 50 nM Phycolink Streptavidin-allophycocyanin and 2 nM Europium-anti-H3K4me1-2 antibody. Plates were read by EnVisionMultilabel Reader in TR-FRET mode (excitation at 320 nm, emission at 615 nm and 665 nm) after 1 hour incubation at room temperature. A ratio was calculated (665/615) for each well and fitted to determine inhibition constant (IC50).

Jarid1B = Jarid1B (Homo sapiens (Human), UniProt Q9UGL1); assay: Jarid1B in vitro enzyme inhibition assay (TR-FRET); settings: 0.8 nM Jarid1B, 300 nM H3K4me3-biotin peptide, 2 μM alpha-ketoglutaric acid
Excerpt: as §1
as §2, with “The” for “The enzymatic assay of Jarid1A activity is based upon Time Resolved-Fluorescence Resonance Energy Transfer (TR-FRET) detection. The”, “of Jarid1B” for “of Jarid1A”, “conditions: 0.8” for “conditions: 1”, “nM Jarid1B,” for “nM Jarid1A,”
as §3

JMJD2C = JMJD2C (Homo sapiens (Human), UniProt Q9H3R0); assay: JMJD2C in vitro enzyme inhibition assay (TR-FRET); settings: 0.3 nM JMJD2C, 300 nM H3K9me3-biotin peptide, 2 μM alpha-ketoglutaric acid
Method in brief: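 Baculovirus-expressed JMJD2C (AA 2-372), 0.3 nM, with 300 nM biotin-H3K9me3 peptide and 2 μM alpha-ketoglutarate in pH 7.3 HEPES buffer with ascorbate and Fe(II); 30 min at room temperature.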

Jarid1A, sequence (P29375 1-1090): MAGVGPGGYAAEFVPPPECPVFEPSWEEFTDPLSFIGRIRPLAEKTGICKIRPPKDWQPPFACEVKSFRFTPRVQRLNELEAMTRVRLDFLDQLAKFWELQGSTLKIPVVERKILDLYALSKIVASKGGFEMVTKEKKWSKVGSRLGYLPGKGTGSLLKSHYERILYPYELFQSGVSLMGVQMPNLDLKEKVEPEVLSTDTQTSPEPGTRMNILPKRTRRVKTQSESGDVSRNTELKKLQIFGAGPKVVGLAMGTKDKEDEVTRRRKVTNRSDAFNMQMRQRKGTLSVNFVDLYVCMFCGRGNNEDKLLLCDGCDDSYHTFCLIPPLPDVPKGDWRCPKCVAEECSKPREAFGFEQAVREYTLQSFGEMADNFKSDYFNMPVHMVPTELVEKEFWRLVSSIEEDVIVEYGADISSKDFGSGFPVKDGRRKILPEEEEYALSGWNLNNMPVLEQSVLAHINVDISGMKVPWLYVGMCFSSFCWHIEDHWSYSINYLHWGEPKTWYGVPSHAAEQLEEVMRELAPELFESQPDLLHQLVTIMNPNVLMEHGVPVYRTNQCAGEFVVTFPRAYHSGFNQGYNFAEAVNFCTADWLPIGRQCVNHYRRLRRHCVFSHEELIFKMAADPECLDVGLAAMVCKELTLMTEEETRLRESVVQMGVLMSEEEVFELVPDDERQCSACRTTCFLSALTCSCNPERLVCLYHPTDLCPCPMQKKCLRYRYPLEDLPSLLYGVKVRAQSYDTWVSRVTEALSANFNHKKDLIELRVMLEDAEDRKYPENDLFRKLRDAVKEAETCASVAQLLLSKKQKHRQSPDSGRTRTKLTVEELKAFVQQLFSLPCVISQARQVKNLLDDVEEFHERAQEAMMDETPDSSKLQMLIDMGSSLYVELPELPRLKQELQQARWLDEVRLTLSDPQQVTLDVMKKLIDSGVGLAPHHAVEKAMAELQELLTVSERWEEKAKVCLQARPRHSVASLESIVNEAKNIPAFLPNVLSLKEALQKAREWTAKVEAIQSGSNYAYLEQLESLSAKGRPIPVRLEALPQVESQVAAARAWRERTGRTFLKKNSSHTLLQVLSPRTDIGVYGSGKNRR
JMJD2C, sequence (Q9H3R0 2-372): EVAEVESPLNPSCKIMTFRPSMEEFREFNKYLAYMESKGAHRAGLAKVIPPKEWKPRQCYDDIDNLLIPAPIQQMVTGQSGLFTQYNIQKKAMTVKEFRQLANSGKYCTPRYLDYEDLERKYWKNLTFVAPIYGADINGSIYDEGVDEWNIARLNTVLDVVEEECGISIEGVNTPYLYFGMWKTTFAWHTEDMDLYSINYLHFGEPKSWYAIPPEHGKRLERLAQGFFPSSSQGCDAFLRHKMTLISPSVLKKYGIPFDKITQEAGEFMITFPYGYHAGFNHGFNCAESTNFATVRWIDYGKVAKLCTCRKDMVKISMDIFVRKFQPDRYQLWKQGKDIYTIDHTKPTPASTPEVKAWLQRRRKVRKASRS
Jarid1B, sequence (Q9UGL1 2-751): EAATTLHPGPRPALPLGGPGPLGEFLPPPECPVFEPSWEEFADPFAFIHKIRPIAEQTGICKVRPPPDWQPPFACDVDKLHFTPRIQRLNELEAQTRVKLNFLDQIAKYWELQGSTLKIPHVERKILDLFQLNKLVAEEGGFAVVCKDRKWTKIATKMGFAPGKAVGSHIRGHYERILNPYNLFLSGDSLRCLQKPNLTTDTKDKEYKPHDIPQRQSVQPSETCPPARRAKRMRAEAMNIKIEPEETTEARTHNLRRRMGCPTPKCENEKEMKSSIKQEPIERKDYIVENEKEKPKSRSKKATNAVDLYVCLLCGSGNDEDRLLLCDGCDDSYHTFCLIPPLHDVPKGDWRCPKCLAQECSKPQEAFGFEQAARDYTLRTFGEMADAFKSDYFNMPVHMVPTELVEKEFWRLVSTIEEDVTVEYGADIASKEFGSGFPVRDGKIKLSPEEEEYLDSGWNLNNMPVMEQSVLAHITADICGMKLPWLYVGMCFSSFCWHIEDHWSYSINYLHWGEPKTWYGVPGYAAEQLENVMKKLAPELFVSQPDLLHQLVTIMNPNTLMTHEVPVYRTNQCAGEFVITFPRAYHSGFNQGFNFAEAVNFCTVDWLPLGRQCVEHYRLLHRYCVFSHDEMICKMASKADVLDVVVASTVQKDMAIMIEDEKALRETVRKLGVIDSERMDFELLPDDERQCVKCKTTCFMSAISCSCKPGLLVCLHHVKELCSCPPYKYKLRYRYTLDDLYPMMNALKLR

## O=C(O)c1ccncc1NC[C@@H]1CCCc2ccccc21 [Example 48, 3-{[(1R)-1,2,3,4-tetrahydronaphthalen-1-ylmethyl]amino}pyridine-4-carboxylic acid]
Jarid1A
  IC50: 100 to 1000 nM
Jarid1B
  IC50: 100 to 1000 nM
JMJD2C
  IC50: 100 to 1000 nM

## O=C(O)c1ccncc1NCc1ccc(Br)cc1 [Example 23, 3-[(4-bromobenzyl)amino]pyridine-4-carboxylic acid]
Jarid1A
  IC50: ≤ 100 nM
Jarid1B
  IC50: ≤ 100 nM
JMJD2C
  IC50: ≤ 100 nM

## N#Cc1ccc(CNc2cnccc2C(=O)O)cc1 [Example 5, 3-[(4-cyanobenzyl)amino]pyridine-4-carboxylic acid]
Jarid1A
  IC50: ≤ 100 nM
Jarid1B
  IC50: ≤ 100 nM
JMJD2C
  IC50: ≤ 100 nM
